Data reported in patent publication US4293489A, “Derivatives of A-30912A nucleus” (Eli Lilly and Company, priority 1980, dated 1981).
Starred links: 1 amine or outer side, 2 acyl side, 3 side chain; linkers in the order of their positions; H or OH if unused. Positions of bridges follow the written chain, without caps; N, C: chain ends. Non-standard residues stand in square brackets, D forms with d. Residues, ends and D or L forms follow the SMILES beside them. *: point of attachment. Orn(4R-OH,5R-OH) = O=C([C@H](C[C@@H](O)[C@@H](O)N[*:3])N[*:1])[*:2]; hTyr(3S-OH,4S-OH) = N[C@H](C(=O)O)[C@H](O)[C@@H](O)c1ccc(O)cc1; Pro(3S-OH,4S-Me) = C[C@H]1CN[C@H](C(=O)O)[C@H]1O; Benzoyl(4-octyl) = CCCCCCCCc1ccc(C(=O)*)cc1; X4 = CCCCCCCCCCS(=O)(=O)c1ccc(C(=O)*)cc1; X22 = CCCCCCCCCCCCOc1ccc(CCC(=O)*)cc1; X10 = CCCCCCCCCCCCOc1cccc(C(=O)*)c1; X25 = CCCCCCCCCCOc1ccc(OCC(=O)*)cc1; X16 = CCCCCCCCOc1ccc(C=CC(=O)*)cc1; X11 = CCCCCCCCOc1ccc(OCC(=O)*)cc1; X21 = CCCCCCCCOc1ccc(CCC(=O)*)cc1; Hyp = O=C(O)[C@@H]1C[C@@H](O)CN1; X19 = CCCCCCOc1ccc(C=CC(=O)*)cc1; X29 = CCCCCCCOc1ccc(CCC(=O)*)cc1; X6 = CCCCCCCCCCSc1ccc(C(=O)*)cc1; X9 = CCCCCCCCCCOc1cccc(C(=O)*)c1; X12 = CCCCCCOc1ccc(CCC(=O)*)cc1; X13 = CCCCCCCCOc1cccc(C(=O)*)c1; X30 = CCCCCCCCOc1ccc(C(=O)*)cn1; X26 = CCCCCOc1ccc(CCC(=O)*)cc1; X7 = CCCCCCCCSc1ccc(C(=O)*)cc1

Tests used:
Candida albicans A-26 = test: Agar plate disc diffusion test, MIC per disc; assay type: cell-based; settings: 0.1M sodium borate, pH 7.5, 24 hours, 30° C.
Description: (§1) Tables 10 and 11 give the results of the testing in vitro of the compounds of Examples 3 and 4 by agar-plate disc-diffusion methods. In Table 10 activity is measured by the size (diameter in mm) of the observed zone of inhibition of the microorganism produced by the test compound. In Table 11, activity is measured by the minimal inhibitory concentration (MIC) of the substance (μg/disc) required to inhibit growth of the test organism. Table 12 gives the results of the testing in vitro of the p-(n-octyloxy)benzoyl derivative of A30912A nucleus [Formula III, R^1 is p-(n-octyloxy)benzoyl] against five strains of Candida albicans by the agar dilution method. In Table 12 activity is measured by the minimal inhibitory concentration (MIC) of the substance (μg/ml) required to inhibit the test organism.
(§2) ^(a) Compounds were suspended in 0.1M sodium borate solution, pH 7.5.
(§3) The compounds were tested at 20 μg/disc at top level and at twofold
(§4) dilutions until end points were reached. Incubation: 24 hours; 30°

[1] = system: Trychophyton mentagrophyes #6; test: Agar plate disc diffusion test, MIC per disc; assay type: cell-based, Trichophyton mentagrophytes; settings: 0.1M sodium borate, pH 7.5, 24 hours, 30° C., * measurable zones with regrowth of organism around disc
Description: as §1, §2, §3, §4
*Measurable zones of inhibition with regrowth of organism around disc.

CCCCCCOc1ccc(CCC(=O)N[C@H]2C[C@@H](O)[C@@H](O)NC(=O)[C@@H]3[C@@H](O)[C@@H](C)CN3C(=O)[C@H]([C@@H](C)O)NC(=O)[C@H]([C@H](O)[C@@H](O)c3ccc(O)cc3)NC(=O)[C@@H]3C[C@@H](O)CN3C(=O)[C@H]([C@@H](C)O)NC2=O)cc1 [drawing 135] (X12-[Orn(4R-OH,5R-OH)]T[Hyp][hTyr(3S-OH,4S-OH)]T[Pro(3S-OH,4S-Me)]; lactam 1-C)
MIC (Candida albicans A-26): 0.625 μg/disc
MIC [1]: 0.156 μg/disc

CCCCCCCCCCOc1ccc(OCC(=O)N[C@H]2C[C@@H](O)[C@@H](O)NC(=O)[C@@H]3[C@@H](O)[C@@H](C)CN3C(=O)[C@H]([C@@H](C)O)NC(=O)[C@H]([C@H](O)[C@@H](O)c3ccc(O)cc3)NC(=O)[C@@H]3C[C@@H](O)CN3C(=O)[C@H]([C@@H](C)O)NC2=O)cc1 (X25-[Orn(4R-OH,5R-OH)]T[Hyp][hTyr(3S-OH,4S-OH)]T[Pro(3S-OH,4S-Me)]; lactam 1-C)
MIC (Candida albicans A-26): 0.156 μg/disc
MIC [1]: < 0.156 μg/disc

CCCCCCCCCCCCOc1ccc(CCC(=O)N[C@H]2C[C@@H](O)[C@@H](O)NC(=O)[C@@H]3[C@@H](O)[C@@H](C)CN3C(=O)[C@H]([C@@H](C)O)NC(=O)[C@H]([C@H](O)[C@@H](O)c3ccc(O)cc3)NC(=O)[C@@H]3C[C@@H](O)CN3C(=O)[C@H]([C@@H](C)O)NC2=O)cc1 [drawing 137] (X22-[Orn(4R-OH,5R-OH)]T[Hyp][hTyr(3S-OH,4S-OH)]T[Pro(3S-OH,4S-Me)]; lactam 1-C)
MIC (Candida albicans A-26): 0.312 μg/disc
MIC [1]: 0.156 μg/disc

CCCCCCCCCCOc1cccc(C(=O)N[C@H]2C[C@@H](O)[C@@H](O)NC(=O)[C@@H]3[C@@H](O)[C@@H](C)CN3C(=O)[C@H]([C@@H](C)O)NC(=O)[C@H]([C@H](O)[C@@H](O)c3ccc(O)cc3)NC(=O)[C@@H]3C[C@@H](O)CN3C(=O)[C@H]([C@@H](C)O)NC2=O)c1 [drawing 128] (X9-[Orn(4R-OH,5R-OH)]T[Hyp][hTyr(3S-OH,4S-OH)]T[Pro(3S-OH,4S-Me)]; lactam 1-C)
MIC (Candida albicans A-26): 2.5 μg/disc
MIC [1]: > 40 μg/disc

CCCCCCCCOc1ccc(CCC(=O)N[C@H]2C[C@@H](O)[C@@H](O)NC(=O)[C@@H]3[C@@H](O)[C@@H](C)CN3C(=O)[C@H]([C@@H](C)O)NC(=O)[C@H]([C@H](O)[C@@H](O)c3ccc(O)cc3)NC(=O)[C@@H]3C[C@@H](O)CN3C(=O)[C@H]([C@@H](C)O)NC2=O)cc1 [drawing 136] (X21-[Orn(4R-OH,5R-OH)]T[Hyp][hTyr(3S-OH,4S-OH)]T[Pro(3S-OH,4S-Me)]; lactam 1-C)
MIC (Candida albicans A-26): 0.078 μg/disc
MIC [1]: 0.156 μg/disc

CCCCCCCCCCS(=O)(=O)c1ccc(C(=O)N[C@H]2C[C@@H](O)[C@@H](O)NC(=O)[C@@H]3[C@@H](O)[C@@H](C)CN3C(=O)[C@H]([C@@H](C)O)NC(=O)[C@H]([C@H](O)[C@@H](O)c3ccc(O)cc3)NC(=O)[C@@H]3C[C@@H](O)CN3C(=O)[C@H]([C@@H](C)O)NC2=O)cc1 [drawing 124] (X4-[Orn(4R-OH,5R-OH)]T[Hyp][hTyr(3S-OH,4S-OH)]T[Pro(3S-OH,4S-Me)]; lactam 1-C)
MIC (Candida albicans A-26): 2.5 μg/disc
MIC [1]: 0.156 μg/disc

CCCCCCCCOc1ccc(OCC(=O)N[C@H]2C[C@@H](O)[C@@H](O)NC(=O)[C@@H]3[C@@H](O)[C@@H](C)CN3C(=O)[C@H]([C@@H](C)O)NC(=O)[C@H]([C@H](O)[C@@H](O)c3ccc(O)cc3)NC(=O)[C@@H]3C[C@@H](O)CN3C(=O)[C@H]([C@@H](C)O)NC2=O)cc1 [drawing 145] (X11-[Orn(4R-OH,5R-OH)]T[Hyp][hTyr(3S-OH,4S-OH)]T[Pro(3S-OH,4S-Me)]; lactam 1-C)
MIC (Candida albicans A-26): 0.312 μg/disc
MIC [1]: 80 μg/disc

CCCCCOc1ccc(CCC(=O)N[C@H]2C[C@@H](O)[C@@H](O)NC(=O)[C@@H]3[C@@H](O)[C@@H](C)CN3C(=O)[C@H]([C@@H](C)O)NC(=O)[C@H]([C@H](O)[C@@H](O)c3ccc(O)cc3)NC(=O)[C@@H]3C[C@@H](O)CN3C(=O)[C@H]([C@@H](C)O)NC2=O)cc1 (X26-[Orn(4R-OH,5R-OH)]T[Hyp][hTyr(3S-OH,4S-OH)]T[Pro(3S-OH,4S-Me)]; lactam 1-C)
MIC (Candida albicans A-26): 5 μg/disc
MIC [1]: 0.156 μg/disc

CCCCCCCOc1ccc(CCC(=O)N[C@H]2C[C@@H](O)[C@@H](O)NC(=O)[C@@H]3[C@@H](O)[C@@H](C)CN3C(=O)[C@H]([C@@H](C)O)NC(=O)[C@H]([C@H](O)[C@@H](O)c3ccc(O)cc3)NC(=O)[C@@H]3C[C@@H](O)CN3C(=O)[C@H]([C@@H](C)O)NC2=O)cc1 (X29-[Orn(4R-OH,5R-OH)]T[Hyp][hTyr(3S-OH,4S-OH)]T[Pro(3S-OH,4S-Me)]; lactam 1-C)
MIC (Candida albicans A-26): 0.625 μg/disc
MIC [1]: 0.156 μg/disc

CCCCCCCCc1ccc(C(=O)N[C@H]2C[C@@H](O)[C@@H](O)NC(=O)[C@@H]3[C@@H](O)[C@@H](C)CN3C(=O)[C@H]([C@@H](C)O)NC(=O)[C@H]([C@H](O)[C@@H](O)c3ccc(O)cc3)NC(=O)[C@@H]3C[C@@H](O)CN3C(=O)[C@H]([C@@H](C)O)NC2=O)cc1 [drawing 133] ({Benzoyl(4-octyl)}-[Orn(4R-OH,5R-OH)]T[Hyp][hTyr(3S-OH,4S-OH)]T[Pro(3S-OH,4S-Me)]; lactam 1-C)
MIC (Candida albicans A-26): 0.625 μg/disc
MIC [1]: 0.156 μg/disc

CCCCCCCCOc1ccc(C(=O)N[C@H]2C[C@@H](O)[C@@H](O)NC(=O)[C@@H]3[C@@H](O)[C@@H](C)CN3C(=O)[C@H]([C@@H](C)O)NC(=O)[C@H]([C@H](O)[C@@H](O)c3ccc(O)cc3)NC(=O)[C@@H]3C[C@@H](O)CN3C(=O)[C@H]([C@@H](C)O)NC2=O)cn1 (X30-[Orn(4R-OH,5R-OH)]T[Hyp][hTyr(3S-OH,4S-OH)]T[Pro(3S-OH,4S-Me)]; lactam 1-C)
MIC (Candida albicans A-26): 80 μg/disc
MIC [1]: 2.5 μg/disc

CCCCCCCCSc1ccc(C(=O)N[C@H]2C[C@@H](O)[C@@H](O)NC(=O)[C@@H]3[C@@H](O)[C@@H](C)CN3C(=O)[C@H]([C@@H](C)O)NC(=O)[C@H]([C@H](O)[C@@H](O)c3ccc(O)cc3)NC(=O)[C@@H]3C[C@@H](O)CN3C(=O)[C@H]([C@@H](C)O)NC2=O)cc1 [drawing 119] (X7-[Orn(4R-OH,5R-OH)]T[Hyp][hTyr(3S-OH,4S-OH)]T[Pro(3S-OH,4S-Me)]; lactam 1-C)
MIC (Candida albicans A-26): 0.312 μg/disc
MIC [1]: < 0.039 μg/disc

CCCCCCCCCCCCOc1cccc(C(=O)N[C@H]2C[C@@H](O)[C@@H](O)NC(=O)[C@@H]3[C@@H](O)[C@@H](C)CN3C(=O)[C@H]([C@@H](C)O)NC(=O)[C@H]([C@H](O)[C@@H](O)c3ccc(O)cc3)NC(=O)[C@@H]3C[C@@H](O)CN3C(=O)[C@H]([C@@H](C)O)NC2=O)c1 [drawing 129] (X10-[Orn(4R-OH,5R-OH)]T[Hyp][hTyr(3S-OH,4S-OH)]T[Pro(3S-OH,4S-Me)]; lactam 1-C)
MIC (Candida albicans A-26): 2.5 μg/disc
MIC [1]: > 40 μg/disc

CCCCCCCCCCSc1ccc(C(=O)N[C@H]2C[C@@H](O)[C@@H](O)NC(=O)[C@@H]3[C@@H](O)[C@@H](C)CN3C(=O)[C@H]([C@@H](C)O)NC(=O)[C@H]([C@H](O)[C@@H](O)c3ccc(O)cc3)NC(=O)[C@@H]3C[C@@H](O)CN3C(=O)[C@H]([C@@H](C)O)NC2=O)cc1 [drawing 120] (X6-[Orn(4R-OH,5R-OH)]T[Hyp][hTyr(3S-OH,4S-OH)]T[Pro(3S-OH,4S-Me)]; lactam 1-C)
MIC (Candida albicans A-26): 0.156 μg/disc
MIC [1]: 0.039 μg/disc

CCCCCCOc1ccc(C=CC(=O)N[C@H]2C[C@@H](O)[C@@H](O)NC(=O)[C@@H]3[C@@H](O)[C@@H](C)CN3C(=O)[C@H]([C@@H](C)O)NC(=O)[C@H]([C@H](O)[C@@H](O)c3ccc(O)cc3)NC(=O)[C@@H]3C[C@@H](O)CN3C(=O)[C@H]([C@@H](C)O)NC2=O)cc1 [drawing 139] (X19-[Orn(4R-OH,5R-OH)]T[Hyp][hTyr(3S-OH,4S-OH)]T[Pro(3S-OH,4S-Me)]; lactam 1-C)
MIC (Candida albicans A-26): 1.25 μg/disc
MIC [1]: 0.156 μg/disc

CCCCCCCCOc1cccc(C(=O)N[C@H]2C[C@@H](O)[C@@H](O)NC(=O)[C@@H]3[C@@H](O)[C@@H](C)CN3C(=O)[C@H]([C@@H](C)O)NC(=O)[C@H]([C@H](O)[C@@H](O)c3ccc(O)cc3)NC(=O)[C@@H]3C[C@@H](O)CN3C(=O)[C@H]([C@@H](C)O)NC2=O)c1 [drawing 127] (X13-[Orn(4R-OH,5R-OH)]T[Hyp][hTyr(3S-OH,4S-OH)]T[Pro(3S-OH,4S-Me)]; lactam 1-C)
MIC (Candida albicans A-26): 10 μg/disc
MIC [1]: > 40 μg/disc

CCCCCCCCOc1ccc(C=CC(=O)N[C@H]2C[C@@H](O)[C@@H](O)NC(=O)[C@@H]3[C@@H](O)[C@@H](C)CN3C(=O)[C@H]([C@@H](C)O)NC(=O)[C@H]([C@H](O)[C@@H](O)c3ccc(O)cc3)NC(=O)[C@@H]3C[C@@H](O)CN3C(=O)[C@H]([C@@H](C)O)NC2=O)cc1 [drawing 140] (X16-[Orn(4R-OH,5R-OH)]T[Hyp][hTyr(3S-OH,4S-OH)]T[Pro(3S-OH,4S-Me)]; lactam 1-C)
MIC (Candida albicans A-26): 0.156 μg/disc
MIC [1]: 0.156 μg/disc
